How the values were obtained:
[1] = biological target: T1, human HPK1 (MAP4K1) (Homo sapiens, UniProt Q92918); assay: HPK1 inhibition assay (indirect ELISA); type: biochemical; details: GST-HPK1 0.6 nM, 12 μM ATP; read-out: IC50 Range HPK1
T1 construct: human HPK1 (aa 1-346); purchased Invitrogen PV6355
T1 sequence (Q92918 1-346): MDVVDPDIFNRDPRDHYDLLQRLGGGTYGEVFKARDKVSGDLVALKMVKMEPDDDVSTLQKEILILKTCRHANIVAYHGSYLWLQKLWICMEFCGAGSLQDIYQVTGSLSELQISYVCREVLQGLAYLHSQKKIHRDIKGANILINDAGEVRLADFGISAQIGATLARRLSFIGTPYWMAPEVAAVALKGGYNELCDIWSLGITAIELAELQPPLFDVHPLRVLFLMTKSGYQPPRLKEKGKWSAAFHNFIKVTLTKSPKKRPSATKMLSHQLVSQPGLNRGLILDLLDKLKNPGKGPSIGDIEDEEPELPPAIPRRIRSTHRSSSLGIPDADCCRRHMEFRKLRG
Procedure, shortened: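 GST-tagged human HPK1 (aa 1-346, 0.6 nM) phosphorylated MBP-coated wells with 12 μM ATP in MOPS pH 7.2/Mg2+ buffer for 30 min after 15-min compound preincubation; phospho-Thr detected by antibody ELISA with TMB, 450 nm. Tested at 10 μM or 10-point titration (typically 50-0.1 μM); IC50 by 4-parameter logistic fit.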

[2] = test system: SLP-76 serine 376 phosphorylation in α-CD3 stimulated Jurkat E6.1 cells; assay: In vitro phosphorylation assay, SLP-76 Ser376 (immunoblot); type: cell-based; details: Homo sapiens, 4 h pretreatment, substantive = >75% inhibition as estimated by immunoblot analysis, read-out: SLP76 S376 Phosphorylation Onset-Substantive* Inhibition
Experimental: (§1) Jurkat E6.1 cells were obtained from American Type Culture Collection (ATCC, Manassas, Va.), and maintained according to the supplier's instructions. Cells were washed three times and starved in RPMI 1640 medium supplemented with 0.5% fetal calf serum for 18 h at 37° C. Serum starved cells were pretreated with the indicated concentration of inhibitor for 4 hours before stimulation with 10 μg/ml α-CD3 antibody (BioLegend, Inc., San Diego, Calif.) for 10 min at 37° C. The cells were washed once in phosphate-buffered saline (pH 7.4) containing 10 mm sodium pyrophosphate, 10 mm sodium fluoride, 10 mm EDTA, and 1 mm sodium orthovanadate. Protein lysates were prepared using ice-cold radioimmunoprecipitation assay (RIPA) lysis buffer. A total of 100 μg of cell lysate was loaded onto Bis-Tris gels (Life Technologies, Carlsbad, Calif.) with full-range molecular weight marker as a size reference, and resolved by SDS-PAGE electrophoresis. Proteins were transferred to PVDF membrane (Millipore, Billerica, Mass.), blocked and probed with antibodies for phospho-SLP-76 (Ser376) (rabbit polyclonal #13177; Cell Signaling Technology Inc., Danvers, Mass.), SLP-76 (rabbit polyclonal #4958; Cell Signaling Technology Inc., Danvers, Mass.), phospho-ERK (mouse monoclonal sc-7383; Santa Cruz Biotechnology Inc., Santa Cruz, Calif.) and ERK1/2 (rabbit polyclonal 06-182; Millipore, Billerica, Mass.). Secondary antibodies were diluted 1 in 15,000 and incubated for 1 h at rt. Protein bands were visualized and quantified using Odyssey near infrared imager (LI-COR, Lincoln, Nebr.).
(§2) Table 2 below lists effects of representative compounds of the present invention against SLP-76 serine 376 phosphorylation and ERK1/2 T202/Y204 phosphorylation in α-CD3 stimulated Jurkat E6.1 cells.

[3] = biological target: T2, FLT3 (Homo sapiens, UniProt P36888); assay: FLT3 inhibition, FRET based Z'-LYTE Kinase Assay; type: biochemical; details: 1 nM FLT3, 940 μM ATP; read-out: IC50 Range Flt3
T2 construct: purchased Invitrogen PV3182
T2 sequence (P36888 27-993): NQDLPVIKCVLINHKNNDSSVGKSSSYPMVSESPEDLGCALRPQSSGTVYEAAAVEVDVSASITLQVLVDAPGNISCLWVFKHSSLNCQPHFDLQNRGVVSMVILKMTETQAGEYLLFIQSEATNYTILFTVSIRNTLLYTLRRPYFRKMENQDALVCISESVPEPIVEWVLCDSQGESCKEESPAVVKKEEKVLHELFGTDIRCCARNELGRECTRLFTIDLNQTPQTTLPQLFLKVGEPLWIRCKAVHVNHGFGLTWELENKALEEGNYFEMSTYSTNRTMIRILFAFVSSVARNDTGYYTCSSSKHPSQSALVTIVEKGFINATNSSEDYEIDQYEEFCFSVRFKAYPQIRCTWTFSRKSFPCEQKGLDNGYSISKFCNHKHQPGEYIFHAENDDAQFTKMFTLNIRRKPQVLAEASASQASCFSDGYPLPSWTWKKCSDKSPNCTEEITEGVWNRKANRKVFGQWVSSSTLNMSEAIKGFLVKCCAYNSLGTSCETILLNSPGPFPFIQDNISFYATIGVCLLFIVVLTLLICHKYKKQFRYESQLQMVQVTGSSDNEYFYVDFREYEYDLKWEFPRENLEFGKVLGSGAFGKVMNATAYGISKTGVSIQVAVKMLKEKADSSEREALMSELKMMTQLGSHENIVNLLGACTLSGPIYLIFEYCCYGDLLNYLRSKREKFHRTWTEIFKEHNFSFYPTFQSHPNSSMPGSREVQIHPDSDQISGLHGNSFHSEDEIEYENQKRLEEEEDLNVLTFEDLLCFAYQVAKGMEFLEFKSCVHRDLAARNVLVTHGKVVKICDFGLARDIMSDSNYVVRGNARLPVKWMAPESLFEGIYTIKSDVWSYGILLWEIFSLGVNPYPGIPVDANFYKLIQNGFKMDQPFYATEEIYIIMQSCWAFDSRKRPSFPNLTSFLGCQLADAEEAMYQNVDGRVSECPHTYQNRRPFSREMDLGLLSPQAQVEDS
Experimental: (§3) FLT3 and LCK compound inhibition were determined using FRET based Z′-LYTE Kinase Assay Kit with Tyrosine 2 peptide as the substrate (Invitrogen cat #PV3191). […] The % inhibition values were determined according to the manufacturer's directions and IC50 values were obtained using a non-linear 4 point logistic curve fit (XLfit4, IDBS).

[4] = test system: ERK1/2 T202/Y204 phosphorylation in α-CD3 stimulated Jurkat E6.1 cells; assay: In vitro phosphorylation assay, ERK1/2 T202/Y204 (immunoblot); type: cell-based; details: Homo sapiens, 4 h pretreatment, read-out: ERK1/2 T202/Y204 Phosphorylation Onset Inhibition
Experimental: as §1, §2

[5] = biological target: T3, LCK (Homo sapiens, UniProt P06239); assay: LCK inhibition, FRET based Z'-LYTE Kinase Assay; type: biochemical; details: 25 nM LCK, 180 μM ATP; read-out: IC50 Range Lck
T3 construct: purchased Invitrogen P3043
T3 sequence (P06239 whole entry, species assumed): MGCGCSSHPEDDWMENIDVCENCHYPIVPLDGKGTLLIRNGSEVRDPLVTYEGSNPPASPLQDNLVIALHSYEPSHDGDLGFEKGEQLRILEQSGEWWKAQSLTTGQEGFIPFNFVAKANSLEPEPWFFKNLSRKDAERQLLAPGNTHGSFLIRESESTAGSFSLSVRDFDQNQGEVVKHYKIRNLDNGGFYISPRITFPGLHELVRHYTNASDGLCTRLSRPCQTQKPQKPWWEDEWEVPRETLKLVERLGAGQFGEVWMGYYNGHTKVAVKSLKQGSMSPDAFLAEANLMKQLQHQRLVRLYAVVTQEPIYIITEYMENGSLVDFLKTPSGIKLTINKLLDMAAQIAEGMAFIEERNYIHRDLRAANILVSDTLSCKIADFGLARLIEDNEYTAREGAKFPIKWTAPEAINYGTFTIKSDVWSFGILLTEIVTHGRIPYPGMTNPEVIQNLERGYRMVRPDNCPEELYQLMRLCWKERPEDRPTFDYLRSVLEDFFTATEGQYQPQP
Experimental: as §3

CN1CCN(c2ccc3nc(-c4c(N[C@H]5CCC[C@H]5O)c5ccsc5[nH]c4=O)[nH]c3c2)CC1 [Example A58, 4-(((1S,2R)-2-hydroxy-cyclopentyl)amino)-5-(6-(4-methylpiperazin-1-yl)-1H-benzo[d]imidazol-2-yl)-thieno[2,3-b]pyridin-6(7H)-one]
IC50 [1]: ≤ 50 nM | IC75 [2]: 100 to 300 nM | IC50 [3]: ≤ 50 nM | minimal effective concentration [4]: > 3 µM | IC50 [5]: 50 to 500 nM

From US11059832B2, “HPK1 inhibitors and methods of using same” (University Health Network, priority 2015, dated 2021)
